Assay results as given in publication PMC10496123, “Potent Antifungal Activity of Penta-O-galloyl-β-D-Glucose against Drug-Resistant Candida albicans, Candida auris, and Other Non-albicans Candida Species” (ACS Infectious Diseases, 2023).
In brackets after ≈: the same amount, converted by molar mass.

Columns and labels:
Candida albicans [1] = assay: Growth inhibition by CLSI microbroth dilution; assay type: cell-based; details: Candida albicans, >90% growth inhibition, 48 h
Candida parapsilosis = assay: Growth inhibition by CLSI microbroth dilution; assay type: cell-based; details: 48 h, >90% growth inhibition
Candida glabrata = assay: Growth inhibition by CLSI microbroth dilution; assay type: cell-based; details: Nakaseomyces glabratus, 48 h, >90% growth inhibition
Candida auris = assay: Growth inhibition by CLSI microbroth dilution; assay type: cell-based; details: Candidozyma auris, 48 h
[2] = test system: C. albicans wild type (CAF2-1) and cdr1Δ/Δ cdr2Δ/Δ mdr1Δ/Δ flu1Δ/Δ; assay: microbe, parasite or virus in culture; assay type: cell-based, Candida albicans; details: for MIC90: Candida albicans, 72 h, RPMI-1640, 72 h, 30 °C, OD600
C. albicans = test system: C. albicans; set-up: method as in PMID 12760852; details: 6 months of treatment in vitro; cited from earlier work
Candida albicans [3] = test system: Candida albicans; set-up: method as in PMID 15790671; details: addition of both Fe^2+ and Fe^3+; cited from earlier work
[4] = test system: C. albicans wild type (SN95, SN152) and ire1Δ/Δ, hap43Δ/Δ, rim101Δ/Δ; assay: microbe, parasite or virus in culture; assay type: cell-based, Candida albicans; details: mutants versus wild type
[5] = strain AR Bank #0381, >90% growth inhibition
[6] = strain AR Bank #0387, >90% growth inhibition
[7] = strain AR Bank #0390, >90% growth inhibition

Row | Molecule | MIC (Candida albicans [1]; ATCC90028, strain ATCC 90028) [µg/mL] | MIC (Candida albicans [1]; strain MH12) [µg/mL] | MIC (Candida parapsilosis; strain AR Bank #0335) [µg/mL] | MIC (Candida parapsilosis; strain AR Bank #0337) [µg/mL] | MIC (Candida parapsilosis; strain AR Bank #0338) [µg/mL] | MIC (Candida parapsilosis; strain AR Bank #0339) [µg/mL] | MIC (Candida glabrata; strain AR Bank #0325) [µg/mL] | MIC (Candida glabrata; strain AR Bank #0326) [µg/mL] | MIC (Candida auris; [5]) [µg/mL] | MIC (Candida auris; [6]) [µg/mL] | MIC (Candida auris; [7]) [µg/mL] | MIC90 ([2]; Wild type (CAF2-1)) [µg/mL] | MIC90 ([2]; cdr1Δ/Δ cdr2Δ/Δ mdr1Δ/Δ flu1Δ/Δ) [µg/mL] | Effect of absence of major efflux pumps (CDR1, CDR2, FLU1, MDR1) on sensitivity ([2]; mutant versus wild type) | Development of resistance (C. albicans) | Antifungal activity on addition of iron (Candida albicans [3]) | Effect of deletion of IRE1, HAP43 and RIM101 on sensitivity [4]
1 | C[C@@H]1[C@H](O)[C@@H](C)/C=C/C=C/C=C/C=C/C=C/C=C/C=C/[C@H](O[C@@H]2O[C@H](C)[C@@H](O)[C@H](N)[C@@H]2O)C[C@@H]2O[C@](O)(C[C@@H](O)C[C@@H](O)[C@H](O)CC[C@@H](O)C[C@@H](O)CC(=O)O[C@H]1C)C[C@H](O)[C@H]2C(=O)O [AMB, amphotericin B] | 1 (≈ 1.08 µM) | 1 (≈ 1.08 µM) | 1 (≈ 1.08 µM) | 1 (≈ 1.08 µM) | 1 (≈ 1.08 µM) | 2 (≈ 2.16 µM) | 1 (≈ 1.08 µM) | 1 (≈ 1.08 µM) | 1 (≈ 1.08 µM) | 0.5 (≈ 0.541 µM) | 2 (≈ 2.16 µM) |  |  |  |  |  | 
2 | OC(Cn1cncn1)(Cn1cncn1)c1ccc(F)cc1F [FLC, fluconazole] | 0.25 (≈ 0.816 µM) | > 8 | > 8 | > 8 | > 8 | > 8 | > 8 | 4 (≈ 13.1 µM) | 4 (≈ 13.1 µM) | 1 (≈ 3.27 µM) | > 8 | > 5 | 0.16 (≈ 0.522 µM) | hypersensitivity |  |  | 
3 | CC(=O)N1CCN(c2ccc(OCC3COC(Cn4ccnc4)(c4ccc(Cl)cc4Cl)O3)cc2)CC1 (stereo not drawn) [KTC, ketoconazole] | < 0.0039 | 1 (≈ 1.88 µM) | 4 (≈ 7.53 µM) | 2 (≈ 3.76 µM) | 0.5 (≈ 0.941 µM) | 0.25 (≈ 0.47 µM) | 4 (≈ 7.53 µM) | 0.25 (≈ 0.47 µM) | < 0.0039 | < 0.0039 | 0.5 (≈ 0.941 µM) |  |  |  |  |  | 
4 | Cc1cc(C2CCCCC2)n(O)c(=O)c1 [ciclopirox] |  |  |  |  |  |  |  |  |  |  |  |  |  |  | did not develop | abrogated | 
5 | bathophenanthrolinedisulfonate [BPS, reference compound] |  |  |  |  |  |  |  |  |  |  |  |  |  |  |  |  | hypersensitive
